Measured values as given in patent US20250345419A1, “TREATING CHEMORESISTANT CANCERS WITH NOTCH3 INHIBITORS” (Mayo Foundation for Medical Education and Research, priority 2022, published 2025).
Entries after “also recorded” stand apart in the source; their conditions may differ.

Columns and labels:
[1] = Toxicology studies, PTX with escalating doses of AV-353; assay type: in vivo, female NSG mice; conditions: PTX 10 mg/Kg, AV-353 100, 200, 400 ug
Protocol: FIG. 17 is a series of graphs plotting liver toxicity in mice treated with saline (CON), paclitaxel 10 mg/Kg (PTX), paclitaxel 10 mg/Kg+AV-353 100 ug (PTX+AV100), paclitaxel 10 mg/Kg+AV-353 200 ug (PTX+AV200), or paclitaxel 10 mg/Kg+AV-353 400 ug (PTX+AV400), based on measurements of liver function indicators: alanine aminotransferase (ALT), aspartate aminotransferase (AST), alkaline phosphatase (ALP), and total bilirubin (TBIL), as well as an indicator of kidney function (creatinine; CRE), and an indicator of general nutritional status (albumin; ALB). Blood samples (1 ml) were collected from animals, and liver enzyme analysis was carried out using a VETSCAN® instrument (Zoetis; Parsippany, NJ).
Toxicology studies: Female NSG mice received saline solution (control) or 10 mg/Kg paclitaxel (PTX) as monotherapy or in combination with escalating doses of AV-353 (AV100 ug, AV200 ug, and AV400 ug). PTX and AV-353 were administered intraperitoneally 3 times per week for 4 weeks. […] After drug treatment, animals were euthanized and organs of interest (liver and stomach) were paraffin embedded, sectioned, and hematoxylin and eosin stained. […] Although no liver damage was detected at the morphological or histological level, further studies were conducted to determine the extent to which the drug treatments induced an increase of liver enzymes. […]

[2] = tested on: 3D-MPS derived from SUM149-PT cells; assay: Real-time growth of RFP-tagged 3D-mammospheres (3D-MPS); assay type: cell-based, human; conditions: SUM149-PT 3D-MPS, AV-353 100 ng and/or DTX 5 nM, 96 hours
Protocol: FIGS. 7A and 7B show results from treatment of 3D-mammospheres (3D-MPS) of SM149-PT TNBC cells with AV-353 (½ IC50: 100 ng) and/or DTX (½ IC50: 5 nM). FIG. 7A includes representative images of RFP-tagged 3DMPS before and after treatment with AV-353 (½ IC50: 100 ng) and/or DTX (½ IC50: 5 nM) for 96 hours, using Annexin-V (red) as a marker of early apoptosis. FIG. 7B is a graph plotting real-time growth of RFP-tagged 3D-MPS before and after treatment with AV-353 (½ IC50: 100 ng) and/or DTX (½ IC50: 5 nM) for 96 hours. 3D-MPS growth was quantified using the INCUCYTE® Cell Player System. Three independent experiments were performed in triplicate (±S.D.).
(§1) Mammospheres Formation: Human breast cancer cells were plated in ultra-low attachment 24-well and 96-well culture dishes in 100 μL of MAMMOCULT™ medium (STEMCELL™ Technologies; Vancouver, BC, Canada). Medium was added every 2 days for a maximum of 8 days. Mammospheres were trypsinized and expanded every 8 days to form tertiary mammospheres, and their growth was recorded through a digital camera (Nikon).
Real-Time Cell Proliferation, Cytotoxicity and Apoptosis Assays: 5,000 cells were plated in Costar […] plates, treated with Docetaxel (DTX) and/or AV-353 (as monotherapy or in combination). Cell proliferation was monitored in real-time by GFP or RFP fluorescence intensity, and Red Annexin-V was used as an early marker of apoptosis. […]

TNBC-M25 3D-MPS = assay: TNBC-M25 mammosphere growth (area, Image-J); assay type: cell-based, human
Protocol: FIGS. 4A and 4B show NOTCH3 genetic targeting in TNBC-M25 mammospheres. FIG. 4A includes images of TNBCM25 single-cell dilutions grown under non-adherent conditions. After 48 hours of incubation, mammospheres were treated with 5 nM (½ IC50) or 10 nM (IC50) docetaxel (DTX) for 10 days. FIG. 4B is a graph plotting mammosphere area measured using the NIH Image-J software. Three independent experiments were performed in triplicate (±S.D.).
as §1
as §1, with “Mammosphere Formation:” for “Mammospheres Formation:”, “attachment 24-” for “attachment 24-well”, “(STEMCELL™ Technologies), and medium” for “(STEMCELL™ Technologies; Vancouver, BC, Canada). Medium”

Row | SMILES | liver and stomach histology (H&E) ([1]; 3 times per week for 4 weeks) | body weight ([1]; intraperitoneally 3 times per week for 4 weeks) | mammosphere (3D-MPS) growth [2] | IC50 (TNBC-M25 3D-MPS; Homo sapiens, TNBC-M25 mammospheres) [nM] | 3D-MPS growth (TNBC-M25 3D-MPS; TNBC-M25 3D-MPS)
1 | CC(=O)O[C@H]1C(=O)[C@@]2(C)[C@H]([C@H](OC(=O)c3ccccc3)[C@]3(O)C[C@H](OC(=O)[C@H](O)[C@@H](NC(=O)c4ccccc4)c4ccccc4)C(C)=C1C3(C)C)[C@]1(OC(C)=O)CO[C@@H]1C[C@@H]2O [PTX, paclitaxel] | No significant damage; also recorded: no significant changes in the architecture of liver and stomach tissue | did not induce body weight loss | – | – | –
2 | CC(=O)O[C@@]12CO[C@@H]1C[C@H](O)[C@@]1(C)C(=O)[C@H](O)C3=C(C)[C@@H](OC(=O)[C@H](O)[C@@H](NC(=O)OC(C)(C)C)c4ccccc4)C[C@@](O)([C@@H](OC(=O)c4ccccc4)[C@H]21)C3(C)C [DTX, docetaxel] | – | – | small effect on growth | 10 | did not inhibit 3D MPS growth
